Patent US5294619A, “Arylpiperidine derivatives” (Pfizer Inc., priority 1992, dated 1994)

Molecular target: T1, dopamine-2 receptor (Rattus norvegicus, UniProt P61169)
T1 construct: The caudate and mesolimbic areas were then homogenized; from tissue; host or cells: rat brain, caudate and mesolimbic areas (washed membrane homogenate)
Assay: 3[H]-N-propylnorapomorphine binding assay (rat caudate and mesolimbic brain tissue)
Conditions: inhibition of 3[H]-N-propylnorapomorphine binding, 0.32 nM radioligand, pH 7.5, 25° C., 30 minutes
Method: The anti-psychotic activity of the compounds of the present invention as neuroleptic agents for the control of various psychotic disorders is determined primarily by a study of their ability to suppress ^3 [H]-N-propylnorapormorphine (dopamine-2 receptor) uptake in the brain of rats (in vitro). This study is carried out in a standard ^3 [H]-N-propylnorapomorphine binding assay test, where the amount of radioactivity is determined by liquid scintillation counting. In this way, the compounds can be rated in terms of their ability to reduce the amount of radioactivity caused by the aforesaid dopamine-2-receptor.
The N-substituted arylpiperidine compounds of Examples 1-18, respectively, were tested for anti-psychotic activity in rats, using the standard ^3 [H]-N-propylnorapomorphine binding assay test, according to the general procedure described by K. Fuxe et al., as reported in the European Journal of Pharmacology, Vol. 100, p. 127 (1984).
In this procedure, the brain was quickly removed from a decapitated rat and the caudate and mesolimbic areas were subsequently dissected therefrom to afford an average of ca. 150-180 mg. of material per rat. The caudate and mesolimbic areas were then homogenized on admixture with 40 volumes of ice-cold 15 mM Tris (i.e., tromethamine which is 2-amino-2-hydroxymethyl-1,3-propanediol) hydrochloride buffer having a pH of 7.5, which also contained 1.0 mM ethylenediaminetetraacetic acid (EDTA) and 0.01% ascorbic acid. The homogenate was next centrifuged at 35,000×G for a period of ten minutes. The supernatant liquid was then decanted, and the resulting pellet subsequently resuspended in 40 volumes of fresh, ice-cold Tris-EDTA buffer and homogenized, followed by incubation 37° C. for a period of ten minutes. The resulting homogenate was next re-centrifuged at 35,000×G for another ten-minute period, followed by decantation of the supernatant liquid. The pellet obtained in this manner was then resuspended again in the Tris-EDTA buffer, followed by a repeat of the centrifugation and decantation steps, with the final pellet being resuspended once more in 15 mM Tris-EDTA buffer at a concentration level of 11.25 mg./ml. This completed the production of the tissue preparation phase of the overall procedure.
. The final reaction mixture was next vortexed and incubated at 25° C. for a period of 30 minutes (using a 25° C. water bath for these purposes). […] Upon completion of the reaction step, the incubation period was terminated by subjecting the tubes to rapid filtration under vacuum through fiber filters, followed by two rinses with 5 ml. of ice-cold 15 mM Tris-EDTA buffer for each tube. The filters thus obtained were next soaked in 10 ml. of Aquasol 2 (a registered trademark name of New England Nuclear Corporation of Boston, Massachusetts for a liquid scintillation counter material), vortexed and then allowed to stand overnight (ca. 18 hours) at ambient temperatures in order to extract radioactivity. The amount of radioactivity was determined by liquid scintillation counting, using a Beta counter at 53% counting efficiency. The IC50 values were thereafter calculated by using standard statistical methods. On this basis, the ability of each test compound to reduce the amount of radioactivity caused by ^3 [H]-N-propylnorapomorphine is given as an IC50 value, expressed in terms of nM units.
In this way, the N-substituted arylpiperidine compounds of formula I that were reported as final products in Examples 1-18, respectively, were all assayed and found to be capable of inhibiting ^3 [H]-N-propylnorapomorphine binding at its dopamine-2 receptor site at the previously-indicated dose level tested. The results obtained in this manner are shown below in the following table, where the binding assay for each compound is reported in terms of the previously-discussed IC50 value: […]

T1 sequence (P61169 whole entry): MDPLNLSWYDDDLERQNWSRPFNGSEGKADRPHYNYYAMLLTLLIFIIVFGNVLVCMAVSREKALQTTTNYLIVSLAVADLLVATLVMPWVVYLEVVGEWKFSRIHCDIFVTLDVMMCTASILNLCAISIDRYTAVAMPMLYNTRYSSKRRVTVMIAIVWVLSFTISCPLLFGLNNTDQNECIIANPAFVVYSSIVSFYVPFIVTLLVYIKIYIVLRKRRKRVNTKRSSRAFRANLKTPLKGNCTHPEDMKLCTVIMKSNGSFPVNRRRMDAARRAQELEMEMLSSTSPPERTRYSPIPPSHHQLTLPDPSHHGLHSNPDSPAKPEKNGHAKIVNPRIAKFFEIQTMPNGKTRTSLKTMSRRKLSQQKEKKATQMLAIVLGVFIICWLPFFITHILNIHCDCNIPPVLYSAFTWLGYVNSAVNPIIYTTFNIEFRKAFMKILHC

| Compound | IC50 [nM] |
| --- | --- |
| COc1ccccc1C1CCCN(CCCCN2C(=O)CC3(CCCC3)CC2=O)C1 (stereo not drawn) [Example 15, 8-{4-[3-(2-methoxyphenyl)-1-piperidinyl]-n-butyl}-8-azaspiro[4.5]decane-7,9-dione] | 531 |
| COc1ccccc1C1CCCN(CCCCc2ccc(-c3csc(N)n3)cc2)C1 (stereo not drawn) [Example 13, 4-{{4-{4-[3-(2-methoxyphenyl)-1-piperidinyl]n-butyl}-phenyl}}thiazole-2amine] | 247 |
| Oc1ccc(CCN2CCC(c3cccc(C(F)(F)F)c3)CC2)cc1 [Example 9, 4-{2-[4-(3-trifluoromethylphenyl)-piperidinyl]ethyl}phenol] | 601 |
| COc1ccccc1C1CCN(CCCCc2ccc(-c3csc(N)n3)cc2)CC1 [Example 14, 4-{{4-{4-[4-(2-methoxyphenyl)-1-piperidinyl]-n-butyl}-phenyl}}thiazole-2-amine] | 51.6 |
| Cc1nc2ccccn2c(=O)c1CCN1CCC(c2cccc3ccccc23)CC1 [Example 1, 3-{2-[4-(1-naphthyl)-piperidinyl]ethyl}-2-methyl-4H-pyrido[1,2-a]-pyrimidine-4-one] | 114 |
| Oc1ccc(CCN2CCC(c3ccccc3)CC2)cc1 [Example 8, 4-[2-(4-phenyl-1-piperidinyl)ethyl]phenol] | 362 |
| COc1ccccc1C1CCN(CCCCN2C(=O)C3CCC(C)(C2=O)C3(C)C)CC1 (stereo not drawn) [Example 17] | 51.5 |
| O=C1CC2(CCCC2)CC(=O)N1CCCCN1CCC(c2cccc3ccccc23)CC1 [Example 3, 8-{4-[4-(1-naphthyl)-1-piperidinyl]-butyl}-8-azaspiro[4.5]decane-7,9-dione] | 239 |
| FC(F)(F)c1cccc(C2CCN(CCOc3ccccc3)CC2)c1 [Example 10, 1-{2-[4-(3-trifluoromethylphenyl)-1-piperidinyl]ethyloxy}benzene] | 210 |
| O=C1Cc2cc(CCN3CCCC(c4cccc5ccccc45)C3)ccc2N1 (stereo not drawn) [Example 5, 5-{2-[3-(1-naphthyl)-1-piperidinyl]ethyl}oxindole] | 169 |
| COc1ccccc1C1CCCN(CCCCN2C(=O)C3CCC(C)(C2=O)C3(C)C)C1 (stereo not drawn) [Example 18, 3-{4-[3-(2-methoxyphenyl)-1-piperidinyl]-n-butyl]-1,8,8-trimethyl-3-azabicyclo[3.2.1]octane-2,4-dione] | 679 |
| COc1ccccc1C1CCCN(CCc2ccc(-c3csc(N)n3)cc2)C1 (stereo not drawn) [Example 12, 4-{{4-{2-[3-(2-methoxyphenyl)-1-piperidinyl]ethyl}phenyl}}-thiazole-2-amine] | 150 |
| CC12CCC(C(=O)N(CCCCN3CCCC(c4cccc5ccccc45)C3)C1=O)C2(C)C (stereo not drawn) [Example 7] | 1110 |
| CC12CCC(C(=O)N(CCCCN3CCC(c4cccc5ccccc45)CC3)C1=O)C2(C)C (stereo not drawn) [Example 6, 3-{4-[4-(1-naphthyl)-1-piperidinyl]-n-butyl}-1,8,8-trimethyl-3-azabicyclo[3.2.1]octane-2,4-dione] | 169 |
| Nc1nc(-c2ccc(CCN3CCC(c4cccc5ccccc45)CC3)cc2)cs1 [Example 2, 4-{{4-{2-[4-(1-naphthyl)piperidinyl]ethyl}phenyl}}thiazole-2-amine] | 196 |
| COc1ccccc1C1CCN(CCc2ccc3c(c2)CC(=O)N3)CC1 [Example 16, 5-{2-[4-(2-methoxyphenyl)-1-piperidinyl]ethyl}oxindole] | 52.2 |
| O=C1Cc2cc(CCN3CCC(c4cccc5ccccc45)CC3)ccc2N1 [Example 4, 5-{2-[4-(1-naphthyl)-1-piperidinyl]ethyl}-oxindole] | 184 |
| COc1ccccc1C1CCN(CCc2ccc(-c3csc(N)n3)cc2)CC1 [Example 11, 4-{{4-{2-[4-(2-methoxyphenyl)-1-piperidinyl]ethyl}-phenyl}}-thiazole-2-amine] | 36.3 |
